Experiments:
Plasmopara viticola = experiment: D-1: Action against Plasmopara viticola on vines (residual-protective and residual-curative action); assay type: in vivo; details: vine seedlings, spray mixture 0.02% active ingredient; protective (infected after 24 hours) or curative (sprayed 24 hours after infection); evaluated after 6 days
Experimental: D-1: Action Against Plasmopara viticola on Vines a) Residual-Protective Action
Vine seedlings are sprayed at the 4- to 5-leaf stage with a spray mixture (0.02% active ingredient) prepared from a wettable powder formulation of the test compound. After 24 hours, the treated plants are infected with a sporangia suspension of the fungus. Fungus infestation is evaluated after incubation for 6 days at 95-100% relative humidity and +20° C. […]
b) Residual-curative Action
Vine seedlings are infected at the 4- to 5-leaf stage with a sporangia suspension of the fungus. After incubation for 24 hours in a humidity chamber at 95-100% relative humidity and +20° C., the infected plants are dried and sprayed with a spray mixture (0.02% active ingredient) prepared from a wettable powder formulation of the test compound. After the spray coating has dried, the treated plants are placed in the humidity chamber again.
Fungus infestation is evaluated 6 days after infection.

Phytophthora [1] = experiment: D-2: Action against Phytophthora on tomato plants (residual-protective and systemic action); assay type: in vivo; details: 0.02% active ingredient, sprayed (infected after 48 hours, evaluated after 5 days) or watered, systemic (infected after 96 hours, evaluated after 4 days)
Experimental: D-2: Action Against Phytophthora on Tomato Plants
(§1) a) Residual-protective Action
After a cultivation period of 3 weeks, tomato plants are sprayed with a spray mixture (0.02% active ingredient) prepared from a wettable powder formulation of the test compound. After 48 hours, the treated plants are infected with a sporangia suspension of the fungus. Fungus infestation is evaluated after incubation of the infected plants for 5 days at 90-100% relative humidity and +20° C.
After a cultivation period of 3 weeks, tomato plants are watered with a spray mixture (0.02% active ingredient based on the volume of the soil) prepared from a wettable powder formulation of the test compound. […] After 96 hours, the treated plants are infected with a sporangia suspension of the fungus. Fungus infestation is evaluated after incubation of the infected plants for 4 days at 90-100% relative humidity and +20° C.

Phytophthora [2] = experiment: D-3: Action against Phytophthora on potato plants (residual-protective and systemic action); assay type: in vivo; details: potato plants (Bintje variety), 0.02% active ingredient; sprayed or watered (systemic), infected after 48 hours, evaluated after 4 days
Experimental: ID-3: Action Against Phytophthora on Potato Plants
as §1
2-3 week old potato plants (Bintje variety) are sprayed with a spray mixture (0.02% active ingredient) prepared from a wettable powder formulation of the test compound. After 48 hours, the treated plants are infected with a sporangia suspension of the fungus. Fungus infestation is evaluated after incubation of the infected plants for 4 days at 90-100% relative humidity and +20° C.
2-3 week old potato plants (Bintje variety) are watered with a spray mixture (0.02% active ingredient based on the volume of the soil) prepared from a wettable powder formulation of the test compound. […] After 48 hours, the treated plants are infected with a sporangia suspension of the fungus. Fungus infestation is evaluated after incubation of the infected plants for 4 days at 90-100% relative humidity and +20° C. Fungal infestation is effectively controlled with compounds of Tables 1 to 47.

Structure (SMILES)	melting point [°C]	fungal infestation (Plasmopara viticola on vines) (Plasmopara viticola)	fungal infestation (Phytophthora on tomato plants) (Phytophthora [1])	fungal infestation (Phytophthora on potato plants) (Phytophthora [2])
C#CCOc1ccc(CCNC(=O)C(=O)c2ccc(-c3ccc(Cl)cc3)cc2)cc1OC	122 to 124			
COc1cc(CCNC(=O)[C@H](NC(=O)OC(C)(C)C)C(C)C)ccc1OCC#Cc1ccc(Cl)cc1 (stereo in doubt)	141 to 142			
C#CCOc1ccc(CCNC(=O)C(O)c2ccc(Cl)c(Cl)c2)cc1OC (stereo not drawn) [Compound E1.01, 2-(3,4-Dichloro-phenyl)-2-hydroxy-N-[2-(3-methoxy-4-prop-2-ynyloxy-phenyl)-ethyl]-acetamide]		completely inhibit fungal infestation	completely inhibit fungal infestation	completely inhibit fungal infestation
CCC#CCOc1ccc(CCNC(=O)C(O)c2ccc(Cl)c(Cl)c2)cc1OC (stereo not drawn) [Compound E1.02, 2-(3,4-Dichloro-phenyl)-2-hydroxy-N-[2-(3-methoxy-4-pent-2-ynyloxy-phenyl)-ethyl]-acetamide]		completely inhibit fungal infestation	completely inhibit fungal infestation	completely inhibit fungal infestation
CCC#CCOc1ccc(CCNC(=O)C(=O)c2ccc(Cl)c(Cl)c2)cc1OC [Compound E2.02, 2-(3,4-Dichloro-phenyl)-N-[2-(3-methoxy-4-pent-2-ynyloxy-phenyl)-ethyl]-2-oxo-acetamide]	94 to 95	completely inhibit fungal infestation	completely inhibit fungal infestation	
C#CCOc1ccc(CCNC(=O)C(O)c2ccc(-c3ccc(C(F)(F)F)cc3)cc2)cc1OC (stereo not drawn) [Compound E3.03, 2-(4′-Trifluoro-biphenyl-4-yl)-2-hydroxy-N-[2-(3-methoxy-4-prop-2-ynyloxy-phenyl)-ethyl]-acetamide]		completely inhibit fungal infestation	completely inhibit fungal infestation	
C#CCOc1ccc(CCNC(=O)C(OC(=O)C(=O)OC)c2ccc(Br)cc2)cc1OC (stereo not drawn) [Compound E4.01, 2-(4-Bromo-phenyl)-2-methyloxalyloxy-N-[2-(3-methoxy-4-prop-2-ynyloxy-phenyl)-ethyl]-acetamide]		completely inhibit fungal infestation	completely inhibit fungal infestation	
